Assay results reported in patent publication US11851391B2, “Antifungal compounds and methods of forming the same” (University of Kentucky Research Foundation, priority 2018, dated 2023).
≈ marks a conversion by molar mass, not a printed value. Read-outs that look alike come from different tables or passages of the source.

Assays:
Assay in all cases: MIC determination, in vitro antifungal assay (CLSI M27-A3)
[1] = system: Candida albicans ATCC 10231(R) (strain A); format: cell-based; conditions: MIC-0 (no visible growth), 48 h at 35° C.
In short: (§1)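 Broth microdilution per CLSI M27-A3 with minor modifications, in RPMI 1640 buffered to pH 7.0 with 0.165 M MOPS at 35° C. Overnight YPD cultures were diluted to 2-4×10^3 CFU/mL in RPMI; DMSO kept <1.25%. MIC taken as lowest concentration giving complete inhibition (MIC-0).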

[2] = system: Candida parapsilosis ATCC 22019 (strain J); format: cell-based; conditions: strain J, MIC-0, 48 h at 35° C.
In short: as §1

[3] = system: C. albicans ATCC 64124(R) (strain B); format: cell-based, Candida albicans; conditions: strain B, MIC-0, 48 h at 35° C.
In short: as §1

[4] = system: C. albicans ATCC 90819(R) (strain D); format: cell-based, Candida albicans; conditions: MIC-0, 48 h at 35° C.
In short: as §1

[5] = system: C. albicans ATCC MYA-1237(R) (strain F); format: cell-based, Candida albicans; conditions: MIC-0, 48 h at 35° C.
In short: as §1

[6] = system: C. albicans ATCC MYA-2310(S) (strain E); format: cell-based, Candida albicans; conditions: MIC-0, 48 h at 35° C.
In short: as §1

[7] = system: Candida glabrata ATCC 2001 (strain H); format: cell-based; conditions: MIC-0, 48 h at 35° C.
In short: (§2)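 Inoculum 2-4×10^3 CFU/mL from overnight YPD culture (OD600 0.12 ≈ 1×10^6 CFU/mL). DMSO <1.25% final.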

[8] = system: Candida krusei ATCC 6258 (strain I); format: cell-based; conditions: MIC-0, 48 h at 35° C.
In short: as §2

[9] = Candida albicans, ATCC10231, 48 h, read-out: MIC
[10] = Lodderomyces parapsilosis, ATCC22019, 48 h, read-out: MIC
[11] = Candida albicans, ATCC64124, 48 h, read-out: MIC
[12] = Candida albicans, ATCC90819, 48 h, read-out: MIC
[13] = Candida albicans, 48 h, read-out: MIC
[14] = Nakaseomyces glabratus, ATCC2001, 48 h, read-out: MIC
[15] = Pichia kudriavzevii, ATCC6258, 48 h, read-out: MIC

| MIC [1, 9] | MIC [1] | MIC [2, 10] | MIC [2] | MIC [3, 11] | MIC [3] | MIC [4, 12] | MIC [4] | MIC [5, 13] | MIC [5] | MIC [6, 13] | MIC [6] | MIC [7] | MIC [7, 14] | MIC [8] | MIC [8, 15] | Structure (SMILES) |
| --- | --- | --- | --- | --- | --- | --- | --- | --- | --- | --- | --- | --- | --- | --- | --- | --- |
| 7.8 to 15.6 µg/mL (≈ 17.3 to 34.6 µM) | 7.8 µg/mL (≈ 17.3 µM) | 7.8 to 15.6 µg/mL (≈ 17.3 to 34.6 µM) | 15.6 µg/mL (≈ 34.6 µM) | 3.9 µg/mL (≈ 8.66 µM) | 3.9 µg/mL (≈ 8.66 µM) | 7.8 to 15.6 µg/mL (≈ 17.3 to 34.6 µM) | 7.8 µg/mL (≈ 17.3 µM) | 7.8 to 15.6 µg/mL (≈ 17.3 to 34.6 µM) | 15.6 µg/mL (≈ 34.6 µM) | 3.9 µg/mL (≈ 8.66 µM) | 3.9 µg/mL (≈ 8.66 µM) | 7.8 µg/mL (≈ 17.3 µM) | 7.8 to 15.6 µg/mL (≈ 17.3 to 34.6 µM) | 7.8 µg/mL (≈ 17.3 µM) | 7.8 to 15.6 µg/mL (≈ 17.3 to 34.6 µM) | COc1ccc(N/N=C/c2ccc(-c3ccc(/C=N/Nc4ccc(OC)cc4)cc3)cc2)cc1 [Compound 15b] |
| 1.95 to 3.9 µg/mL (≈ 4.99 to 9.99 µM) | 1.95 µg/mL (≈ 4.99 µM) | > 31.3 µg/mL | – | 31.3 µg/mL (≈ 80.2 µM) | – | 31.3 µg/mL (≈ 80.2 µM) | – | 31.3 µg/mL (≈ 80.2 µM) | – | 31.3 µg/mL (≈ 80.2 µM) | – | – | > 31.3 µg/mL | 7.8 µg/mL (≈ 20 µM) | 7.8 to 15.6 µg/mL (≈ 20 to 39.9 µM) | C(=N\Nc1ccccc1)/c1ccc(-c2cccc(/C=N/Nc3ccccc3)c2)cc1 [Compound 7a] |
| 1.95 to 3.9 µg/mL (≈ 4.33 to 8.66 µM) | 1.95 µg/mL (≈ 4.33 µM) | > 31.3 µg/mL | – | 15.6 µg/mL (≈ 34.6 µM) | – | 1.95 to 3.9 µg/mL (≈ 4.33 to 8.66 µM) | 3.9 µg/mL (≈ 8.66 µM) | 1.95 to 3.9 µg/mL (≈ 4.33 to 8.66 µM) | 3.9 µg/mL (≈ 8.66 µM) | – | – | – | – | 3.9 µg/mL (≈ 8.66 µM) | 1.95 to 3.9 µg/mL (≈ 4.33 to 8.66 µM) | COc1ccc(N/N=C/c2ccc(-c3cccc(/C=N/Nc4ccc(OC)cc4)c3)cc2)cc1 [Compound 15a] |
| 1.95 to 3.9 µg/mL (≈ 4.22 to 8.43 µM) | 3.9 µg/mL (≈ 8.43 µM) | 31.3 µg/mL (≈ 67.7 µM) | – | 7.8 µg/mL (≈ 16.9 µM) | – | 15.6 µg/mL (≈ 33.7 µM) | – | 7.8 µg/mL (≈ 16.9 µM) | – | 15.6 µg/mL (≈ 33.7 µM) | – | – | 15.6 µg/mL (≈ 33.7 µM) | 1.95 µg/mL (≈ 4.22 µM) | 1.95 to 3.9 µg/mL (≈ 4.22 to 8.43 µM) | Fc1ccc(N/N=C/c2ccc(-c3cccc(/C=N/Nc4ccc(F)cc4F)c3)cc2)c(F)c1 [Compound 20a] |
| 1.95 to 3.9 µg/mL (≈ 4.57 to 9.14 µM) | 1.59 to 3.9 µg/mL | 31.3 µg/mL (≈ 73.4 µM) | – | 15.6 µg/mL (≈ 36.6 µM) | – | > 31.3 µg/mL | – | 15.6 µg/mL (≈ 36.6 µM) | – | 7.8 µg/mL (≈ 18.3 µM) | – | – | > 31.3 µg/mL | – | > 31.3 µg/mL | Fc1ccc(N/N=C/c2ccc(-c3cccc(/C=N/Nc4ccc(F)cc4)c3)cc2)cc1 [Compound 17a] |
| 7.8 to 15.6 µg/mL (≈ 18.3 to 36.6 µM) | 7.8 µg/mL (≈ 18.3 µM) | 31.3 µg/mL (≈ 73.4 µM) | – | 7.8 to 15.6 µg/mL (≈ 18.3 to 36.6 µM) | 15.6 µg/mL (≈ 36.6 µM) | 31.3 µg/mL (≈ 73.4 µM) | – | 7.8 to 15.6 µg/mL (≈ 18.3 to 36.6 µM) | 7.8 µg/mL (≈ 18.3 µM) | 7.8 to 15.6 µg/mL (≈ 18.3 to 36.6 µM) | 15.6 µg/mL (≈ 36.6 µM) | 15.6 µg/mL (≈ 36.6 µM) | 7.8 to 15.6 µg/mL (≈ 18.3 to 36.6 µM) | 1.95 µg/mL (≈ 4.57 µM) | 1.95 µg/mL (≈ 4.57 µM) | Fc1ccc(N/N=C/c2ccc(-c3ccc(/C=N/Nc4ccc(F)cc4)cc3)cc2)cc1 [Compound 17b] |
| 1.95 to 3.9 µg/mL (≈ 4.29 to 8.58 µM) | 1.95 µg/mL (≈ 4.29 µM) | 15.6 µg/mL (≈ 34.3 µM) | – | 1.95 to 3.9 µg/mL (≈ 4.29 to 8.58 µM) | 3.9 µg/mL (≈ 8.58 µM) | 7.8 µg/mL (≈ 17.2 µM) | – | 7.8 µg/mL (≈ 17.2 µM) | – | 1.95 to 3.9 µg/mL (≈ 4.29 to 8.58 µM) | 1.95 µg/mL (≈ 4.29 µM) | – | 15.6 µg/mL (≈ 34.3 µM) | 1.95 µg/mL (≈ 4.29 µM) | 1.95 to 3.9 µg/mL (≈ 4.29 to 8.58 µM) | C/C(=N\Nc1ccc(F)cc1)c1ccc(-c2ccc(/C(C)=N/Nc3ccc(F)cc3)cc2)cc1 [Compound 17c, 4,4′-bis((E)-1-(2-(4-fluorophenyl)hydrazono)ethyl)-1,1′-biphenyl] |
| 1.95 to 3.9 µg/mL (≈ 4.57 to 9.14 µM) | 1.95 µg/mL (≈ 4.57 µM) | 31.3 µg/mL (≈ 73.4 µM) | – | > 31.3 µg/mL | – | 7.8 to 15.6 µg/mL (≈ 18.3 to 36.6 µM) | 15.6 µg/mL (≈ 36.6 µM) | 7.8 to 15.6 µg/mL (≈ 18.3 to 36.6 µM) | 15.6 µg/mL (≈ 36.6 µM) | > 31.3 µg/mL | – | – | > 31.3 µg/mL | 1.95 µg/mL (≈ 4.57 µM) | 1.95 to 3.9 µg/mL (≈ 4.57 to 9.14 µM) | Fc1cccc(N/N=C/c2ccc(-c3cccc(/C=N/Nc4cccc(F)c4)c3)cc2)c1 [Compound 12a] |
